According to US20250154202A1, “CYCLIC EPITOPE TAGS” (BIONTECH SE, priority 2022, published 2025):
pKd: −log10 of the molar value. Values joined by “and” are separate entries in the source; they are usually repeats but may differ in a detail not shown here. Identical values can stand only once. Bridge positions count the residues as written; N and C are the ends. Square brackets hold non-standard residues; d marks the D form. Peptide text beside a SMILES is read from it.

Assays:
[1] = Plasma stability, human plasma; details: for remaining at 1 h, 10 µM / remaining at 3 h, 10 µM / remaining at 6 h, 10 µM / half-life: human; for remaining at 1 h, 10 µM / remaining at 3 h, 10 µM / remaining at 6 h, 10 µM: human Li-heparin plasma; for half-life: plasma
Description: (§1) Plasma stability measurements were performed by spiking 5 μl of a 1 mM compound stock solution in DMSO into 495 μl of human or mouse Li-heparin plasma (Innovative Research, Cat. No, IPLALIH5OML (human) and IMS-BC-N (Balb C mouse). The spiked plasma was distributed in 50 μl aliquots into capped PCR tubes for incubation at 37° C. At each time point (0, 2, 6, 24 hours*) 3*aliquots were withdrawn from the incubator. Enzymatic reactions were quenched directly after withdrawal by adding 100 μl of acetonitrile/formic acid=99/1 (v/v). Quenched samples were stored at ambient temperature until the end of the incubation period (24 hrs*). After centrifugation, the supernatant was transferred into fresh vials and analyzed by LC-MS/MS in ESI positive mode (Waters ACQUITY UPLC I-Class System (SM-FTN) with Xevo TQD triple quadrupole mass spectrometer with control software Waters MassLynx). […] Values below the limit of quantification (0.1 μM) and outliers of triplicate results were excluded from further calculations. An exponential regression curve was fitted onto the concentration results. Half-life times were calculated from the slope of the regression curve (t1/2=ln(2)/slope).
(§2) For some samples, as indicated below, the incubation time was 6 hours. The 24 hour data was measured in triplicates whereas the 6 hour data was measured in duplicates.

[2] = Plasma stability, mouse plasma; details: for remaining at 1 h, 10 µM / remaining at 3 h, 10 µM / remaining at 6 h, 10 µM: Balb C, Li-heparin plasma; for remaining at 1 h, 10 µM / remaining at 3 h, 10 µM / remaining at 6 h, 10 µM / half-life: mouse; for Conc. (% of T0) / Mean (compound concentration) / Tube 2 (compound concentration) / Tube 1 (compound concentration) / half-life: mouse plasma, 37° C.; for half-life: plasma
Description: as §1, §2

NbALFA = assay: SPR measurements of NbALFA binding (Biacore T200, multi cycle kinetics, 1:1 binding model); details: for pKd / ka / kd: 25° C., HBS-EP+ buffer, biotinylated NbALFA captured
Description: Affinity measurements were performed using a Biacore T200 (GE Healthcare, Biacore T200 control Software 3.2). […] A freshly docked Biotin CAPture chip was rehydrated overnight in the instrument (standby mode). […] The immobilization of the Nanobody was done for 180 s at 10 μL/min on FC2 followed by quenching of unbound streptavidin by 0.1 mM biocytin for 60 s and 30 μL/min on both flow cells. […] After each cycle, the surface was regenerated for 120 s with 10 μL/min using regeneration solution. All measurements were performed at 25° C. using HBS-EP+ buffer (Cytiva Europe, Cat. no BR100669). The control responses from FC1 were subtracted by the sample measurement in FC2 (FC2−FC1) followed by subtraction of the 0 nM blank injection. Resulting binding curves of this multi cycle kinetic experiment were fitted using the Biacore T200 Evaluation Software 3.2 and a 1:1 binding model.

[3] = human plasma, 37° C., timepoint 0 h
[4] = human plasma, 37° C., timepoint 0 h, calibration range 0.1 to 10 μM
[5] = human plasma, 37° C., timepoint 1 h
[6] = human plasma, 37° C., timepoint 3 h
[7] = human plasma, 37° C., timepoint 6 h
[8] = Flag (half-life, assay exceeded), human plasma, 37° C.
[9] = Half-life time, human plasma, 37° C., incubation 24 h (triplicates) or 6 h (duplicates)
[10] = timepoint 0 h, calibration range 0.1 to 10 μM
[11] = Flag (half-life, assay exceeded)
[12] = Half-life time, incubation 24 h (triplicates) or 6 h (duplicates)
[13] = Conc. (% of T0), human plasma, 37° C., timepoint 1 h
[14] = Conc. (% of T0), human plasma, 37° C., timepoint 3 h

Row | Conc. (% of T0) [1, 3] | half-life [1, 8] [h] | half-life [1, 9] [h] | remaining at 1 h, 10 µM [2] [%] | remaining at 3 h, 10 µM [2] [%] | remaining at 6 h, 10 µM [2] [%] | Conc. (% of T0) ([2]; timepoint 0 h) | Mean (compound concentration) ([2]; timepoint 0 h) | Tube 2 (compound concentration) ([2]; timepoint 0 h) | Tube 1 (compound concentration) [2, 10] [x] | Mean (compound concentration) ([2]; timepoint 1 h) | Tube 1 (compound concentration) ([2]; timepoint 1 h) [x] | Tube 2 (compound concentration) ([2]; timepoint 1 h) | Mean (compound concentration) ([2]; timepoint 3 h) | Tube 1 (compound concentration) ([2]; timepoint 3 h) [x] | Tube 2 (compound concentration) ([2]; timepoint 3 h) | Mean (compound concentration) ([2]; timepoint 6 h) | Tube 1 (compound concentration) ([2]; timepoint 6 h) [x] | Tube 2 (compound concentration) ([2]; timepoint 6 h) | half-life [2, 12] [h] | Structure (SMILES) | further results
1 | 100.0 % of T0 | > 6 | 20.8 | 88.4 | 83.1 | 73.7 | 100.0 % of T0 | 3.073 | 3.145 | 3.000 | 2.717 | 2.773 | 2.661 | 2.553 | 2.604 | 2.501 | 2.265 | 2.258 | 2.272 | 14.9 | CC(=O)N1CCC[C@H]1C(=O)N[C@@H](CO)C(=O)N[C@@H](CCCNC(=N)N)C(=O)N[C@@H](CC(C)C)C(=O)N[C@H]1CCC(=O)NCCCC[C@@H](C(=O)N[C@@H](CCCNC(=N)N)C(=O)N[C@@H](CCCNC(=N)N)C(=O)N[C@@H](CC(C)C)C(=O)N[C@H](C(=O)N[C@@H](CCC(=O)O)C(N)=O)[C@@H](C)O)NC(=O)[C@H](CC(C)C)NC(=O)[C@H](CCC(=O)O)NC(=O)[C@H](CCC(=O)O)NC1=O [SD15806, Ac-Pro-Ser-Arg-Leu-(cyclo5)Glu-Glu-Glu-Leu-(cyclo9)Lys-Arg-Arg-Leu-Thr-Glu-NH2] (Ac-PSRLEEELKRRLTE-NH2; lactam 5-9) | Mean (compound concentration) [1, 3]: 3.040; Tube 2 (compound concentration) [1, 3]: 2.965; Tube 1 (compound concentration) [1, 4]: 3.114 x; Mean (compound concentration) [1, 5]: 2.859; Tube 1 (compound concentration) [1, 5]: 2.843 x; Tube 2 (compound concentration) [1, 5]: 2.874; Mean (compound concentration) [1, 6]: 2.629; Tube 1 (compound concentration) [1, 6]: 2.772 x; Tube 2 (compound concentration) [1, 6]: 2.486; Mean (compound concentration) [1, 7]: 2.476; Tube 1 (compound concentration) [1, 7]: 2.534 x; Tube 2 (compound concentration) [1, 7]: 2.417; remaining at 1 h, 10 µM [1, 13]: 94%; remaining at 3 h, 10 µM [1, 14]: 86.5%; remaining at 6 h, 10 µM ([1]; Conc. (% of T0), human plasma, 37° C., timepoint 6 h): 81.4%; half-life [2, 11]: > 6 h; pKd (NbALFA): 8.84; ka (NbALFA): 3.44e+09 M⁻¹ s⁻¹; kd (NbALFA): 4.94 s⁻¹
2 | 100.0 % of T0 | > 6 | 6.07 | 78.7 | 60.9 | 37 | 100.0 % of T0 | 2.172 | 2.194 | 2.149 | 1.710 | 1.726 | 1.693 | 1.322 | 1.321 | 1.323 | 0.804 | 0.803 | 0.804 | 4.32 | CC(=O)N1CCC[C@H]1C(=O)N[C@@H](CO)C(=O)N[C@@H](CCCNC(=N)N)C(=O)N[C@@H](CC(C)C)C(=O)N[C@@H](CCC(=O)O)C(=O)N[C@H]1CSSC[C@H](C(=O)N[C@@H](CCCNC(=N)N)C(=O)N[C@@H](CCCNC(=N)N)C(=O)N[C@@H](CC(C)C)C(=O)N[C@H](C(=O)N[C@@H](CCC(=O)O)C(N)=O)[C@@H](C)O)NC(=O)[C@H](CC(C)C)NC(=O)[C@H](CCC(=O)O)NC1=O [SD15807, Ac-Pro-Ser-Arg-Leu-Glu-(cyclo6)Cys-Glu-Leu-(cyclo9)dCys-Arg-Arg-Leu-Thr-Glu-NH2] (Ac-PSRLECEL[dC]RRLTE-NH2; disulfide 6-9) | Mean (compound concentration) [1, 3]: 2.217 and 2.958; Tube 2 (compound concentration) [1, 3]: 2.230 and 3.034; Tube 1 (compound concentration) [1, 4]: 2.203 x and 2.882 x; Mean (compound concentration) [1, 5]: 2.093 and 2.872; Tube 1 (compound concentration) [1, 5]: 2.094 x and 2.884 x; Tube 2 (compound concentration) [1, 5]: 2.092 and 2.860; Conc. (% of T0) ([1]; human plasma, 37° C., timepoint 1 h, 60 min): 97.1 % of T0; Mean (compound concentration) [1, 6]: 1.662 and 2.596; Tube 1 (compound concentration) [1, 6]: 1.583 x and 2.532 x; Tube 2 (compound concentration) [1, 6]: 1.740 and 2.660; Conc. (% of T0) ([1]; human plasma, 37° C., timepoint 3 h, 180 min): 87.8 % of T0; Conc. (% of T0) ([1]; human plasma, 37° C., timepoint 6 h, 360 min): 51.2 % of T0 and 77.7 % of T0; remaining at 1 h, 10 µM [1, 13]: 94.4%; remaining at 3 h, 10 µM [1, 14]: 75%
3 |  | > 6 | 16.1 | 86.9 | 73.7 | 61.1 | 100.0 % of T0 | 3.198 | 3.173 | 3.223 | 2.780 | 2.668 | 2.892 | 2.357 | 2.398 | 2.316 | 1.955 | 2.018 | 1.892 | 8.74 | CC(=O)N1CCC[C@H]1C(=O)N[C@@H](CO)C(=O)N[C@@H](CCCNC(=N)N)C(=O)N[C@@H](CC(C)C)C(=O)N[C@@H](CCC(=O)O)C(=O)N[C@H]1CCC(=O)NCCCC[C@H](C(=O)N[C@@H](CCCNC(=N)N)C(=O)N[C@@H](CC(C)C)C(=O)N[C@H](C(=O)N[C@@H](CCC(=O)O)C(N)=O)[C@@H](C)O)NC(=O)[C@H](CCCNC(=N)N)NC(=O)[C@H](CC(C)C)NC(=O)[C@H](CCC(=O)O)NC1=O [SD15808, Ac-Pro-Ser-Arg-Leu-Glu-(cyclo6)Glu-Glu-Leu-Arg-(cyclo10)dLys-Arg-Leu-Thr-Glu-NH2] (Ac-PSRLEEELR[dK]RLTE-NH2; lactam 6-10) | half-life [2, 11]: > 6 h; pKd (NbALFA): 10.42; ka (NbALFA): 1.35e+07 M⁻¹ s⁻¹; kd (NbALFA): 0.000513 s⁻¹; binding with respect to NbALFA (NbALFA; in words): very good binding

Row | Structure (SMILES) | Conc. (% of T0) [1, 3] | half-life [1, 8] [h] | half-life [1, 9] [h] | remaining at 1 h, 10 µM [2] [%] | remaining at 3 h, 10 µM [2] [%] | remaining at 6 h, 10 µM [2] [%] | Conc. (% of T0) ([2]; timepoint 0 h) | Mean (compound concentration) ([2]; timepoint 0 h) | Tube 2 (compound concentration) ([2]; timepoint 0 h) | Tube 1 (compound concentration) [2, 10] [x] | Mean (compound concentration) ([2]; timepoint 1 h) | Tube 1 (compound concentration) ([2]; timepoint 1 h) [x] | Tube 2 (compound concentration) ([2]; timepoint 1 h) | Mean (compound concentration) ([2]; timepoint 3 h) | Tube 1 (compound concentration) ([2]; timepoint 3 h) [x] | Tube 2 (compound concentration) ([2]; timepoint 3 h) | Mean (compound concentration) ([2]; timepoint 6 h) | Tube 1 (compound concentration) ([2]; timepoint 6 h) [x] | Tube 2 (compound concentration) ([2]; timepoint 6 h) | half-life [2, 12] [h] | further results
4 | CC(=O)N1CCC[C@H]1C(=O)N[C@@H](CO)C(=O)N[C@@H](CCCNC(=N)N)C(=O)N[C@@H](CC(C)C)C(=O)N[C@@H](CCC(=O)O)C(=O)N[C@H]1CCCCNC(=O)CC[C@@H](C(=O)N[C@@H](CCCNC(=N)N)C(=O)N[C@@H](CC(C)C)C(=O)N[C@H](C(=O)N[C@@H](CCC(=O)O)C(N)=O)[C@@H](C)O)NC(=O)[C@H](CCCNC(=N)N)NC(=O)[C@H](CC(C)C)NC(=O)[C@H](CCC(=O)O)NC1=O [SD15805, Ac-Pro-Ser-Arg-Leu-Glu-(cyclo6)Lys-Glu-Leu-Arg-(cyclo10)Glu-Arg-Leu-Thr-Glu-NH2] (Ac-PSRLEKELRERLTE-NH2; lactam 6-10) | 100.0 % of T0 | > 6 | 13.8 | 82.1 | 78.3 | 53.8 | 100.0 % of T0 | 2.697 | 2.811 | 2.583 | 2.213 | 2.223 | 2.203 | 2.112 | 2.125 | 2.099 | 1.450 | 1.429 | 1.471 | 7.29 | Mean (compound concentration) [1, 3]: 2.836; Tube 2 (compound concentration) [1, 3]: 2.777; Tube 1 (compound concentration) [1, 4]: 2.894 x; Mean (compound concentration) [1, 5]: 2.507; Tube 1 (compound concentration) [1, 5]: 2.529 x; Tube 2 (compound concentration) [1, 5]: 2.485; Mean (compound concentration) [1, 6]: 2.356; Tube 1 (compound concentration) [1, 6]: 2.408 x; Tube 2 (compound concentration) [1, 6]: 2.304; Mean (compound concentration) [1, 7]: 2.046; Tube 1 (compound concentration) [1, 7]: 2.046 x; Tube 2 (compound concentration) [1, 7]: 2.045; remaining at 1 h, 10 µM [1]: 88.4%; remaining at 3 h, 10 µM [1]: 83.1%; remaining at 6 h, 10 µM [1]: 72.1%; half-life [2, 11]: > 6 h; pKd (NbALFA): 9.99; ka (NbALFA): 9.33e+06 M⁻¹ s⁻¹; kd (NbALFA): 0.000964 s⁻¹
